Earlier results, collected in patent publication US20210177818A1, “Antibacterial Formulation for Treating and Prophylactic use in Bacterial, and Fungal Urinary Bladder Infections” (priority 2019, published 2021).

Conditions: in acetone, acetic acid, or ethanol

SMILES: CCCCCCCCCCCCCCCC[n+]1ccccc1 [Cetylpyridinium chloride, 1-hexa-decyl pyridinium chloride]
- solubility: insoluble
